# From patent publication US20260317324A1, “BIFUNCTIONAL COMPOUNDS FOR DEGRADING BRAF VIA UBIQUITIN PROTEOSOME PATHWAY” (Nurix Therapeutics, Inc., priority 2023, published 2026)
# Assays:
# Type in all cases: cell-based
# [1] = biological target: T1, BRAF V600E (Homo sapiens, UniProt P15056, V600E); experiment: BRAF HiBiT degradation assay, C-terminal HiBiT-tagged BRAF V600E A375 cells (clone 1F10), Nano-Glo HiBiT Lytic assay; details: for Dmax: A-375
# T1 construct: endogenous C-terminal HiBiT fusion tag on BRAF V600E allele; endogenous in cells; host or cells: A375 clone 1F10 (CRISPR-Cas9 knock-in of the HiBiT tag; parental A375 from ATCC)
# Method in brief: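 Using CRISPR-engineered A375 cells that carry a C-terminal HiBiT tag on endogenous BRAF V600E, remaining protein was quantified by lytic luminescence relative to DMSO-treated cells, with wildtype A375 as the background control. DC50 denotes the concentration giving 50% degradation.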
# [2] = biological target: T2, BRAF G466V (Homo sapiens, UniProt P15056, G466V); experiment: BRAF HiBiT degradation assay, C-terminal HiBiT-tagged BRAF G466V overexpressed in HCT-116 BRAF−/− cells (clone 8), Nano-Glo HiBiT Lytic assay
# T2 construct: Horizon Discovery (HCT-116 BRAF−/− cells); host or cells: HCT-116 BRAF−/− cells, clone 8, lentiviral transduction
# Method in brief: (§1)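 Degradation assay in HCT-116 BRAF−/− cells carrying lentiviral HiBiT-tagged mutant BRAF. The readout is % protein remaining across 1 μM to 0.01 nM compound, and DC50 marks 50% remaining.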
# [3] = biological target: T3, BRAF G469A (Homo sapiens, UniProt P15056, G469A); experiment: BRAF HiBiT degradation assay, C-terminal HiBiT-tagged BRAF G469A overexpressed in HCT-116 BRAF−/− cells (clone 34), Nano-Glo HiBiT Lytic assay
# T3 construct: Horizon Discovery (HCT-116 BRAF−/− cells); host or cells: HCT-116 BRAF−/− cells, clone 34, lentiviral transduction
# Method in brief: as §1
# [4] = biological target: T4, BRAF D594G (Homo sapiens, UniProt P15056, D594G); experiment: BRAF HiBiT degradation assay, C-terminal HiBiT-tagged BRAF D594G overexpressed in HCT-116 BRAF−/− cells (clone 63), Nano-Glo HiBiT Lytic assay
# T4 construct: Horizon Discovery (HCT-116 BRAF−/− cells); host or cells: HCT-116 BRAF−/− cells, clone 63, lentiviral transduction
# Method in brief: as §1
# [5] = A375 (BRAF V600E, Class 1), DC50 at 50% degradation
# [6] = A375 (BRAF V600E, Class 1), observed Dmax, % protein degraded relative to DMSO control
# [7] = BRAF G466V (Class 3), HCT-116 BRAF−/− cells, DC50 at 50% degradation
# [8] = BRAF G466V (Class 3), HCT-116 BRAF−/− cells, observed Dmax relative to DMSO control
# [9] = BRAF G469A (Class 2), HCT-116 BRAF−/− cells, DC50 at 50% degradation
# [10] = BRAF G469A (Class 2), HCT-116 BRAF−/− cells, observed Dmax relative to DMSO control
# [11] = BRAF D594G (Class 3), HCT-116 BRAF−/− cells, DC50 at 50% degradation
# [12] = BRAF D594G (Class 3), HCT-116 BRAF−/− cells, observed Dmax relative to DMSO control
# [13] = A375 (BRAF V600E), DC50 at 50%: fitted conc. at Y=50
# [14] = A375 (BRAF V600E), percentage protein degraded at maximal compound effect relative to DMSO
# [15] = BRAF G466V, DC50 at 50%: fitted conc. at Y=50
# [16] = HCT-116, BRAF G466V, percentage protein degraded at maximal compound effect relative to DMSO
# [17] = Class 2, BRAF G469A, DC50 at 50%: fitted conc. at Y=50
# [18] = HCT-116, Class 2, BRAF G469A, percentage protein degraded at maximal compound effect relative to DMSO
# [19] = BRAF D594G, DC50 at 50%: fitted conc. at Y=50
# [20] = HCT-116, BRAF D594G, percentage protein degraded at maximal compound effect relative to DMSO
# T4 sequence (P15056 whole entry D594G): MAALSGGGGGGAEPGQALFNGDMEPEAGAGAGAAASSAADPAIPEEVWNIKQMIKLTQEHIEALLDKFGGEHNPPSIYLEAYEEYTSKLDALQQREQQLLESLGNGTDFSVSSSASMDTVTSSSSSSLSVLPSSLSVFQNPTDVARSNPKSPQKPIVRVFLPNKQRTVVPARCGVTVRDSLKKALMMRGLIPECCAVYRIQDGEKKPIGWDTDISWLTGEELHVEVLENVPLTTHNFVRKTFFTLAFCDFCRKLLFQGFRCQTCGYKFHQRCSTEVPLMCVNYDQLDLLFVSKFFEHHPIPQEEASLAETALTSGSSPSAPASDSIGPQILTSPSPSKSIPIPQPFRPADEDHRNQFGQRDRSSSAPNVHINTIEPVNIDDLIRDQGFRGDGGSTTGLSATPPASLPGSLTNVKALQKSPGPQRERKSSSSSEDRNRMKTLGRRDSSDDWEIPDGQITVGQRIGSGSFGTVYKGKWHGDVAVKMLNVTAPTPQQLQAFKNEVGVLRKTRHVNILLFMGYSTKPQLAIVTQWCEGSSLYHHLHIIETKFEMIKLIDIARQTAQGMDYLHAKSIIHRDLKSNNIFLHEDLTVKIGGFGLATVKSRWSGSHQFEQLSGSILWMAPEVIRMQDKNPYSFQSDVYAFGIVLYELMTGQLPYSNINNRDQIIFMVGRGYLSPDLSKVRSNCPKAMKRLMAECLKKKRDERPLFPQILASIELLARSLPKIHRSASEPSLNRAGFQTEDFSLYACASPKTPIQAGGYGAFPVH
# T2 sequence (P15056 whole entry G466V): as the sequence (P15056 whole entry D594G) above, with G466V, G594D counted along it
# T1 sequence (P15056 whole entry V600E, the tested form may be a part): as the sequence (P15056 whole entry D594G) above, with G594D, V600E counted along it
# T3 sequence (P15056 whole entry G469A): as the sequence (P15056 whole entry D594G) above, with G469A, G594D counted along it
"DC50 [1, 5] [nM]","Dmax [1, 6] [%]","DC50 [2, 7] [nM]","Dmax [2, 8] [%]","DC50 [3, 9] [nM]","Dmax [3, 10] [%]","DC50 [4, 11] [nM]","Dmax [4, 12] [%]","DC50 [1, 13] [nM]","Dmax [1, 14] [%]","DC50 [2, 15] [nM]","Dmax [2, 16] [%]","DC50 [3, 17] [nM]","Dmax [3, 18] [%]","DC50 [4, 19] [nM]","Dmax [4, 20] [%]",Compound
10 to 50,> 70,10 to 50,30 to 70,> 500,30 to 70,> 500,30 to 70,,,,,,,,,"O=C1CC[C@@H](c2ccc(N3CCC(CN4CCN(c5ccc(-n6cc(-c7cc(Cl)cc(NS(=O)(=O)N8CCCC8)c7F)c(-c7ccncc7)n6)cc5)CC4)CC3)cc2F)C(=O)N1 [Compound 384, N-{5-chloro-3-[1-(4-{4-[(1-{4-[(3S)-2,6-dioxopiperidin-3-yl]-3-fluorophenyl}piperidin-4-yl)methyl]piperazin-1-yl}phenyl)-3-(pyridin-4-yl)-1H-pyrazol-4-yl]-2-fluorophenyl}pyrrolidine-1-sulfonamide]"
< 10,> 70,< 10,> 70,10 to 50,30 to 70,< 10,30 to 70,,,,,,,,,"O=C1CCN(c2ccc(N3CCC(CN4CCN(c5ccc(-n6cc(-c7cc(Cl)cc(NS(=O)(=O)C8CCCC8)c7F)c(-c7ccncc7)n6)cc5)CC4)CC3)nc2)C(=O)N1 [Compound 388, N-[5-chloro-3-(1-{4-[4-({1-[5-(2,4-dioxo-1,3-diazinan-1-yl)pyridin-2-yl]piperidin-4-yl}methyl)piperazin-1-yl]phenyl}-3-(pyridin-4-yl)-1H-pyrazol-4-yl)-2-fluorophenyl]cyclopentanesulfonamide]"
< 10,> 70,< 10,> 70,< 10,> 70,< 10,> 70,,,,,,,,,"O=C1CCC(c2ccc(N3CCC(CN4CCN(c5ccc(-n6cc(-c7cc(Cl)cc(NS(=O)(=O)N8CC[C@@H](F)C8)c7F)c(-c7ccncc7)n6)cc5F)CC4)CC3)nc2)C(=O)N1 (mixture of isomers) [Compound 366, (3R)—N-{5-chloro-3-[1-(4-{4-[(1-{5-[(3RS)-2,6-dioxopiperidin-3-yl]pyridin-2-yl}piperidin-4-yl)methyl]piperazin-1-yl}-3-fluorophenyl)-3-(pyridin-4-yl)-1H-pyrazol-4-yl]-2-fluorophenyl}-3-fluoropyrrolidine-1-sulfonamide]"
< 10,> 70,< 10,> 70,10 to 50,> 70,< 10,> 70,,,,,,,,,"O=C1CCC(c2ccc(N3CCC(CN4CCN(c5ccc(-n6cc(-c7cc(Cl)cc(NS(=O)(=O)N8CC[C@@H](F)C8)c7F)c(-c7ccncc7)n6)c(F)c5)CC4)CC3)nc2)C(=O)N1 (mixture of isomers) [Compound 335, (3R)—N-{5-chloro-3-[1-(4-{4-[(1-{5-[(3RS)-2,6-dioxopiperidin-3-yl]pyridin-2-yl}piperidin-4-yl)methyl]piperazin-1-yl}-2-fluorophenyl)-3-(pyridin-4-yl)-1H-pyrazol-4-yl]-2-fluorophenyl}-3-fluoropyrrolidine-1-sulfonamide]"

# Continued, molecule first:
Compound,"DC50 [1, 5] [nM]","Dmax [1, 6] [%]","DC50 [2, 7] [nM]","Dmax [2, 8] [%]","DC50 [3, 9] [nM]","Dmax [3, 10] [%]","DC50 [4, 11] [nM]","Dmax [4, 12] [%]","DC50 [1, 13] [nM]","Dmax [1, 14] [%]","DC50 [2, 15] [nM]","Dmax [2, 16] [%]","DC50 [3, 17] [nM]","Dmax [3, 18] [%]","DC50 [4, 19] [nM]","Dmax [4, 20] [%]"
"O=C1CCN(c2ccc(N3CCC(CN4CCN(c5ccc(-n6cc(-c7cc(Cl)cc(NS(=O)(=O)N8CCCC8)c7F)c(-c7ccncc7)n6)nc5)CC4)CC3)cc2)C(=O)N1 [Compound 287, N-[5-chloro-3-(1-{5-[4-({1-[4-(2,4-dioxo-1,3-diazinan-1-yl)phenyl]piperidin-4-yl}methyl)piperazin-1-yl]pyridin-2-yl}-3-(pyridin-4-yl)-1H-pyrazol-4-yl)-2-fluorophenyl]pyrrolidine-1-sulfonamide]",< 10,> 70,< 10,30 to 70,10 to 50,30 to 70,< 10,30 to 70,,,,,,,,
"C[C@@H]1CN(c2ccc(-n3cc(-c4cc(Cl)cc(NS(=O)(=O)N5CCCC5)c4F)c(-c4ccncc4)n3)nc2)CCN1CC1CCN(c2ccc(N3CCC(=O)NC3=O)cc2)CC1 [Compound 324, N-[5-chloro-3-(1-{5-[(3R)-4-({1-[4-(2,4-dioxo-1,3-diazinan-1-yl)phenyl]piperidin-4-yl}methyl)-3-methylpiperazin-1-yl]pyridin-2-yl}-3-(pyridin-4-yl)-1H-pyrazol-4-yl)-2-fluorophenyl]pyrrolidine-1-sulfonamide]",< 10,> 70,< 10,30 to 70,50 to 500,30 to 70,< 10,30 to 70,,,,,,,,
"CCCS(=O)(=O)Nc1cccc(-c2nc(-c3ccc(N4CCN(CC5CCN(c6ccc([C@H]7CCC(=O)NC7=O)cc6)CC5)CC4)cc3)sc2-c2ccnc(N)n2)c1F [Compound 191, N-{3-[5-(2-aminopyrimidin-4-yl)-2-(4-{4-[(1-{4-[(3R)-2,6-dioxopiperidin-3-yl]phenyl}piperidin-4-yl)methyl]piperazin-1-yl}phenyl)-1,3-thiazol-4-yl]-2-fluorophenyl}propane-1-sulfonamide]",,,,,,,,,< 10,> 70,10 to 50,30 to 70,> 500,30 to 70,> 500,30 to 70
"CCCS(=O)(=O)Nc1cccc(-c2nc(C(C)(C)C)sc2-c2ccnc(Nc3ccc(N4CCN(CC5CCN(c6ccc(C7CCC(=O)NC7=O)cn6)CC5)CC4)cc3)n2)c1F (racemic) [Compound 47, Rac-N-[3-(2-tert-butyl-5-{2-[(4-{4-[(1-{5-[(3R)-2,6-dioxopiperidin-3-yl]pyridin-2-yl}piperidin-4-yl)methyl]piperazin-1-yl}phenyl)amino]pyrimidin-4-yl}-1,3-thiazol-4-yl)-2-fluorophenyl]propane-1-sulfonamide]",,,,,,,,,< 10,> 70,< 10,> 70,> 500,30 to 70,10 to 50,30 to 70
"O=C1CC[C@H](c2ccc(N3CCC(CN4CCN(c5ccc(-n6cc(-c7cc(Cl)cc(NS(=O)(=O)N8CC[C@@H](F)C8)c7F)c(-c7ccncc7)n6)c(F)c5)CC4)CC3)nc2)C(=O)N1 [Compound 334, (3R)—N-{5-chloro-3-[1-(4-{4-[(1-{5-[(3R)-2,6-dioxopiperidin-3-yl]pyridin-2-yl}piperidin-4-yl)methyl]piperazin-1-yl}-2-fluorophenyl)-3-(pyridin-4-yl)-1H-pyrazol-4-yl]-2-fluorophenyl}-3-fluoropyrrolidine-1-sulfonamide]",< 10,> 70,< 10,> 70,10 to 50,> 70,< 10,> 70,,,,,,,,
"CCCS(=O)(=O)Nc1cccc(-c2nc(C3CCC4(CC3)CCN(C(=O)C3CCN(c5ccc(C(=O)NC6CCC(=O)NC6=O)nc5)CC3)CC4)sc2-c2ccnc(N)n2)c1F (racemic) [Compound 252, Rac-5-(4-{9-[5-(2-aminopyrimidin-4-yl)-4-[2-fluoro-3-(propane-1-sulfonamido)phenyl]-1,3-thiazol-2-yl]-3-azaspiro[5.5]undecane-3-carbonyl}piperidin-1-yl)-N-[(3R)-2,6-dioxopiperidin-3-yl]pyridine-2-carboxamide]",10 to 50,> 70,> 500,< 30,> 500,< 30,> 500,< 30,,,,,,,,
